Active and inactive are the calls of the source. The calls are words filed in the database; no cut-off is given here. Bridge positions count the residues as written; N and C are the ends. Square brackets hold non-standard residues; d marks the D form. Peptide text beside a SMILES is read from it.
Legend:
[1] = target: T1, Mas-related G-protein coupled receptor member X1 (Homo sapiens, UniProt Q96LB2); assay: Agonist activity at human MrgX1 receptor; format: functional
[2] = target: T1, Mas-related G-protein coupled receptor member X1; assay: Agonist activity at human MrgX1 receptor at 10 uM relative to BAM22; format: functional
[3] = target: T2, Mas-related G-protein coupled receptor member X2 (Homo sapiens, UniProt Q96LB1); assay: Agonist activity at human MrgX2 receptor; format: functional
T2 sequence (Q96LB1 whole entry): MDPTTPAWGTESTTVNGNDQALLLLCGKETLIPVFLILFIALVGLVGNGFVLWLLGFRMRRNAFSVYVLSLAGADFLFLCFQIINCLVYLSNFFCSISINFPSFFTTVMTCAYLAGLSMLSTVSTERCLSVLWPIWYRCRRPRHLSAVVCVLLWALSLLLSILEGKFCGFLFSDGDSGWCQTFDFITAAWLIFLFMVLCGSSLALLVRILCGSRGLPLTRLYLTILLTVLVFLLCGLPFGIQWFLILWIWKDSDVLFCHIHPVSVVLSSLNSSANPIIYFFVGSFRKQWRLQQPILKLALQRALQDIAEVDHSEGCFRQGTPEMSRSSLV

[4] = target: T3, Mas-related G-protein coupled receptor member X2 (Homo sapiens) (UniProt Q96LB1); assay: Agonist activity at human MrgX2 receptor at 10 uM relative to cortistatin-14; format: functional
T3 sequence (whole entry): T2 sequence (Q96LB1 whole entry)

[5] = Agonist activity at monkey MrgX1 receptor; format: functional, Macaca mulatta
Macaca mulatta [6] = organism: Macaca mulatta; assay: Agonist activity at monkey MrgX1 receptor at 10 uM relative to BAM22; format: functional
[7] = Agonist activity at monkey MrgX2 receptor; format: functional, Macaca mulatta
Macaca mulatta [8] = organism: Macaca mulatta; assay: Agonist activity at monkey MrgX2 receptor at 10 uM relative to cortistatin-14; format: functional
[9] = target: T1, Mas-related G-protein coupled receptor member X1; assay: Agonist activity at MrgX1 receptor by calcium mobilization assay; format: functional
[10] = Metabolic stability in human liver microsome assessed as intrinsic clearance; format: ADME; conditions: liver microsomes

T1 sequence (Q96LB2 whole entry): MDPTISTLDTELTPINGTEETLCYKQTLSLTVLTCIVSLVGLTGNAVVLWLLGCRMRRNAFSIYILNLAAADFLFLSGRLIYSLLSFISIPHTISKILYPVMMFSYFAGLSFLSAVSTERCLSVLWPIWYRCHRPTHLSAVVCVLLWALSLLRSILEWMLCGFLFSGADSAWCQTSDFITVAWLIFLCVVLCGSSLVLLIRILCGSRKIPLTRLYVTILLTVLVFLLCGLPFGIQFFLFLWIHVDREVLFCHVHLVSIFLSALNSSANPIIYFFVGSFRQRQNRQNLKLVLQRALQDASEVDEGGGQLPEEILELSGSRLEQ

EC50 [1] | Efficacy [2] | EC50 [3] | Efficacy [4] | pEC50 [5] | Efficacy (Macaca mulatta [6]) | pEC50 [7] | Efficacy (Macaca mulatta [8]) | Activity [9] | microsomal CLint [10] | SMILES
0.316 µM | 129% | 1.26 µM | 41% | 6.4 | 124% | 5.7 | 27% |  |  | CCC(C)[C@H]1C(=O)Nc2ccc(N3CCC(NC(C)=O)C3)cc2-c2nc3cc(C(=O)NCc4cccc(C(F)(F)F)c4)ccc3n21 (stereo partly specified)
 | inactive | 0.316 µM | 110% |  | inactive | 6.4 | 50% |  |  | CC(C)[C@H]1C(=O)Nc2ccc(NC3CCCCCC3)cc2-c2nc3cc(C(=O)N4CCCN(C)CC4)ccc3n21
 | inactive |  | 100% |  | inactive | 6.1 | 86% |  |  | C[C@@H](O)[C@@H]1NC(=O)[C@@H](CCCCN)NC(=O)[C@H](Cc2c[nH]c3ccccc23)NC(=O)[C@H](Cc2ccccc2)NC(=O)[C@H](Cc2ccccc2)NC(=O)[C@H](CC(N)=O)NC(=O)[C@H](CCCCN)NC(=O)[C@@H](NC(=O)[C@@H]2CCCN2)CSSC[C@@H](C(=O)N[C@@H](CCCCN)C(=O)O)NC(=O)[C@H](CO)NC(=O)[C@H](CO)NC(=O)[C@@H](Cc2ccccc2)NC1=O [CORTISTATIN-14] (H-PCKNFFW[dK]T[dF]SSCK-OH; disulfide 2-13)
0.794 µM | 100% |  | inactive | 4.5 | 50% |  | inactive |  |  | CSCC[C@H](NC(=O)[C@H](Cc1ccccc1)NC(=O)CNC(=O)CNC(=O)[C@@H](N)Cc1ccc(O)cc1)C(=O)N[C@@H](CCCNC(=N)N)C(=O)N[C@@H](CCCNC(=N)N)C(=O)N[C@H](C(=O)NCC(=O)N[C@@H](CCCNC(=N)N)C(=O)N1CCC[C@H]1C(=O)N[C@@H](CCC(=O)O)C(=O)N[C@@H](Cc1c[nH]c2ccccc12)C(=O)N[C@@H](Cc1c[nH]c2ccccc12)C(=O)N[C@@H](CCSC)C(=O)N[C@@H](CC(=O)O)C(=O)N[C@@H](Cc1ccc(O)cc1)C(=O)N[C@@H](CCC(N)=O)C(=O)N[C@@H](CCCCN)C(=O)N[C@@H](CCCNC(=N)N)C(=O)N[C@@H](Cc1ccc(O)cc1)C(=O)NCC(=O)O)C(C)C
 |  | 0.501 µM |  |  |  |  |  |  |  | C[C@@H](O)[C@@H]1NC(=O)[C@H](CCCCN)NC(=O)[C@H](Cc2c[nH]c3ccccc23)NC(=O)[C@H](Cc2ccccc2)NC(=O)[C@H](Cc2ccccc2)NC(=O)[C@H](CC(N)=O)NC(=O)[C@H](CCCCN)NC(=O)[C@@H](NC(=O)[C@@H]2CCCN2)CSSC[C@@H](C(=O)N[C@@H](CCCCN)C(=O)O)NC(=O)[C@H](CO)NC(=O)[C@H](CO)NC(=O)[C@H](Cc2ccccc2)NC1=O [CORTISTATIN-14] (H-PCKNFFWKTFSSCK-OH; disulfide 2-13)
 | inactive | 0.158 µM | 87% |  |  |  |  |  |  | CC(C)[C@H]1C(=O)Nc2ccc(NCc3ccccc3)cc2-c2nc3cc(C(=O)N(C)C4CCN(C)CC4)ccc3n21
 | inactive | 0.398 µM | 216% |  | inactive | 6.7 | 133% | Active | 5 µL/min/mg | CC(C)[C@H]1C(=O)Nc2ccc(N3CCN(Cc4ccccc4)CC3)cc2-c2nc3cc(C(=O)N(C)C4CCN(C)CC4)ccc3n21
0.0631 µM | 147% | 0.631 µM | 103% | 6.1 | 157% | 5.4 | 85% |  |  | CCC(C)[C@H]1C(=O)Nc2ccc(NCCCN(C)C)cc2-c2nc3cc(C(=O)NCc4cccc(C(F)(F)F)c4)ccc3n21 (stereo partly specified)
0.316 µM | 135% |  | inactive | 6.1 | 126% |  | inactive |  |  | CCC(C)[C@H]1C(=O)Nc2ccc(NCCOCCOCCN)cc2-c2nc3cc(C(=O)NCc4cccc(C(F)(F)F)c4)ccc3n21 (stereo partly specified)
2.51 µM | 98% |  | inactive | 5.6 | 89% |  | inactive |  |  | CC(=O)NC1CCN(c2ccc3c(c2)-c2nc4cc(C(=O)N5CCN(c6ccc(F)cc6)CC5)ccc4n2[C@@H](C(C)C)C(=O)N3)C1 (stereo partly specified)
1.26 µM | 94% |  | inactive | 6 | 57% |  | inactive |  |  | CC(C)[C@H]1C(=O)Nc2ccc(NCCN3CCCCC3)cc2-c2nc3cc(C(=O)N4CCN(c5ccc(F)cc5)CC4)ccc3n21
0.631 µM | 108% |  | 60% | 5.8 | 102% |  | inactive |  |  | CC(C)[C@H]1C(=O)Nc2ccc(NCCCN(C)C)cc2-c2nc3cc(C(=O)N4CCN(c5ccc(F)cc5)CC4)ccc3n21
0.2 µM | 133% | 2 µM | 28% | 6.1 | 127% |  | inactive |  |  | CCC(C)[C@H]1C(=O)Nc2ccc(NCCN3CCCCC3)cc2-c2nc3cc(C(=O)NCc4cccc(C(F)(F)F)c4)ccc3n21 (stereo partly specified)

Reference: ChEMBL document CHEMBL1153297, “Discovery of non-peptidergic MrgX1 and MrgX2 receptor agonists and exploration of an initial SAR using solid-phase synthesis” (Bioorg Med Chem Lett, 2009)
